This assay addresses T1, recombinant human SIRT1 (Homo sapiens, UniProt Q96EB6).
T1 construct: purchased R&D Systems, Biotechne
T1 sequence (Q96EB6 1-747): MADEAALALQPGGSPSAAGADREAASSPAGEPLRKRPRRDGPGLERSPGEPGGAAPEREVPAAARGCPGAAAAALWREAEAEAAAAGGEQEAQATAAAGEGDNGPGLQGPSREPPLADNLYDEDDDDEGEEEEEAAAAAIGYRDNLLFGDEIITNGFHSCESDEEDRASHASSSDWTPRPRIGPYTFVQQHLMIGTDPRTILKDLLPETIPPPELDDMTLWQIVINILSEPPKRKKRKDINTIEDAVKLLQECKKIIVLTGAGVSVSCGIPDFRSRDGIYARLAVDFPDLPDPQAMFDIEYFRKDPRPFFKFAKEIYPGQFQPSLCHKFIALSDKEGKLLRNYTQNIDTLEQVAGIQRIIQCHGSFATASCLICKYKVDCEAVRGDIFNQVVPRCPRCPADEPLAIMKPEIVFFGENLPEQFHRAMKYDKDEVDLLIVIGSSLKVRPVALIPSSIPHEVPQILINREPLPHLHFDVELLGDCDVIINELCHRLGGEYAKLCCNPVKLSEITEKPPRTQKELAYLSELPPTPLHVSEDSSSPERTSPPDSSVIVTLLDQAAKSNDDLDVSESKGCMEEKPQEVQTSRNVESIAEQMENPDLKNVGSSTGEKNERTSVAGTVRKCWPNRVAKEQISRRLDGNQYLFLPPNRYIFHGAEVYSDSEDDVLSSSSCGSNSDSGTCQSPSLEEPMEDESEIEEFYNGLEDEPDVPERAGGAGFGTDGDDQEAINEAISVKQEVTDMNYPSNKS
Nature of the assay: NAD+-dependent deacetylation bioluminescence assay (SIRT-Glo). The settings on record: Sirt-Glo luminescence assay, three independent experiments; read-out: IC50, inhibition of deacetylase activity. Format: biochemical. The protocol: Though SA treatment should prevent IsoK adduct formation on many different protein targets, and many of these proteins could have some impact on lifespan and healthspan, the present inventors determined that there would be specific proteins of particular importance in mediating SA's beneficial effects. Specifically, the present inventors recognized that SIR-2.1 would be one of these “high value targets” for several reasons. […] Recombinant human SIRT1 was incubated with increasing concentrations of synthetically pure IsoK, and enzymatic deacetylase activity was assessed using the luminescence based Sirt-Glo assay (Promega).
Relative activity of the NAD+-dependent histone deacetylase (HDAC) class III enzymes (sirtuins) was measured using the SIRT-Glo™ Assay and Screening System (Promega Corporation, Madison, Wis.) according to the manufacturer's instructions with minor modifications. […] Deacetylation of the peptide substrate is measured using a coupled enzymatic system with a protease in the reagent provided and then cleaves the luminogenic peptide to liberate aminoluciferin. Free aminoluciferin can be quantified using the Ultra-Glo™ firefly luciferase reaction to produce a stable, persistent emission of light. […] 15-E2-IsoK was synthesized by the method of Armanath et al. Luminescence was detected by a microplate reader (FLUOstar Optima microplate reader, BMG Labtechnologies).

In the case of 15-E2-IsoK, the IC50 – broadly, the concentration that inhibits the measured activity by half – was determined as 97.8 µM.

The values above are taken from patent US11633370B2, “Use of scavengers of reactive gamma-ketoaldehydes to extend cell lifespan and healthspan” (Vanderbilt University, priority 2016, dated 2023).
